Holding throughout (test): growth of human tumour cells (NCI), 48 h
For experiment [1], the system named is SK-OV-3 ovarian.
For experiment [2], the system named is IGROV1 ovarian.
Experiment [3] deals with HL-60(TB) leukemia.
For experiment [4], the system named is SK-MEL-28 melanoma.
For experiment [5], the system named is SF-539 CNS.
Experiment [6] has as its system 786-0 renal.
The subject of experiment [7] is ACHN renal.
Experiment [8] has as its system HCT-116 colon.
Experiment [9] deals with NCI-H226 lung.
Experiment [10] concerns RXF 393 renal.

Data on ten compounds can be found in PubChem BioAssay (NCI).

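96-well plates; 48 h exposure; 5 concentrations. Endpoints by linear interpolation between flanking doses. Not reached: highest tested concentration assigned. GI50: concentration for 50% inhibition of growth. Definition used: TGI = concentration required for complete inhibition of growth.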

For the compound `CN1CCN(CCSC2Cc3cc(Cl)ccc3Sc3ccccc32)CC1` (stereo not given), the TGI in experiment [1] was found to be 32.5 µM; in [2], 25.6 µM; in experiment [3], 5.46 µM; in experiment [4], 3.5 µM; in experiment [5], 11.7 µM; in experiment [6] it was 9.11 µM. Further, the TGI in experiment [7] worked out at 19.8 µM; in experiment [8], 15.3 µM; in [9] it was 31.4 µM; in experiment [10], 15.3 µM.

Regarding `COc1cc2nc(-c3ccc(C(F)(F)F)cc3)cc(OCCCN3CCOCC3)c2cc1OC`, the GI50 in experiment [1] was 5.04 µM; in [2] it was 0.83 µM; in [3] it was 9.58 µM; in experiment [4] it was 1.44 µM; in experiment [5] it was 3.18 µM; in experiment [6] it was 1.76 µM. In addition, the GI50 in experiment [7] was 2.01 µM; in experiment [8], 0.583 µM; in experiment [9], 0.406 µM; in experiment [10] it was 0.706 µM. Also, the TGI in experiment [1] came to 22.4 µM; in experiment [2], 21.9 µM; in experiment [3] it was 47.3 µM; in experiment [4], 3.27 µM; in experiment [5] it was 16.4 µM; in [6] it was 4.47 µM. The TGI was determined as 18.2 µM in [7], 13.5 µM in [8], 4.87 µM in [9] and 3.65 µM in experiment [10].

For the compound `O=C(C(O)c1cn(Cc2ccccc2)c2ccccc12)N1CCCCC1` (stereo not given), the TGI in experiment [1] is above 100 µM; in [2] it was above 100 µM; in [3], above 100 µM; in experiment [4], above 10 µM; in experiment [5] it was above 100 µM; in experiment [6] it was above 100 µM. Further, the TGI in experiment [7] is above 100 µM; in [8], above 100 µM; in experiment [9] it was above 100 µM; in [10] it was above 10 µM.

As for `CN1CCN(Cc2ccc(NC(=O)c3cncc(C#Cc4cnc(N)c5ccc(F)cc45)c3)cc2C(F)(F)F)CC1`, the GI50 in experiment [1] was 1.03 µM; in [2], 0.677 µM; in [3], 1.05 µM; in experiment [4], 2.52 µM; in [5] it was 2.03 µM; in [6], 3.95 µM. For the same compound, the GI50 in experiment [7] was 1.02 µM; in experiment [8] it was 1 µM; in experiment [9], 1.05 µM; in experiment [10], 0.826 µM. Further, the TGI in experiment [1] worked out at 3.81 µM; in [2], 4.08 µM; in experiment [3], 4.42 µM; in [4] it was 7.11 µM; in experiment [5], 6.13 µM; in [6], 9.99 µM. Further, the TGI in experiment [7] stood at 4.36 µM; in [8], 5.04 µM; in experiment [9], 6.16 µM; in experiment [10], 2.73 µM.

With `COc1ccc(NC(=O)C2C(=O)N(c3ccc(OC)cc3)C(=O)/C2=N/O)cc1` (stereo not given), the TGI in [1] is 39 µM; in [2], above 80.7 µM; in [3], above 100 µM; in experiment [4], above 96.8 µM; in [5], 36.7 µM; in experiment [6], 41.9 µM. The TGI in [7] stood at 43.2 µM; in experiment [8], 38.3 µM; in [9], 55.7 µM; in experiment [10], 30.5 µM.

Consider `CCN(CC)CCNc1c(OC)cc(C)c2sc3ccccc3c(=O)c12`, for which the TGI came to 31.3 µM in experiment [1]; 20.7 µM in experiment [2]; 18.9 µM in [3]; 5.1 µM in experiment [4]; 23 µM in experiment [5]; 28.4 µM in [6]. In addition, the TGI in [7] was determined as 15.8 µM; in experiment [8], 16.3 µM; in experiment [9], 12.8 µM; in experiment [10] it was 34 µM.

For `O=c1oc2ccccc2c(O)c1/C=N\c1nc(-c2ccccc2)cs1`, the TGI in experiment [1] was above 100 µM; in experiment [2], 27.8 µM; in [3] it was 4.01 µM; in [4], 31.1 µM; in experiment [5], 6.39 µM; in experiment [6], 40.2 µM. The TGI in experiment [7] was 24 µM; in experiment [8], 22 µM; in [9], 23 µM; in experiment [10], 26.9 µM.

For `COc1ccc(/C=C/c2cc(OC)c(OC)c(OC)c2)cc1NC(=O)/C=C/c1ccc(F)cc1`, the GI50 was 0.0441 µM in experiment [1]; 5.71 µM in experiment [2]; 1.8 µM in experiment [3]; 5.04 µM in experiment [4]; 2.88 µM in [5]; 4.29 µM in experiment [6]. The GI50 was 6.3 µM in [7], 3.98 µM in experiment [8], 3.82 µM in experiment [9] and 1.41 µM in experiment [10]. The TGI is 0.782 µM in [1]; above 100 µM in experiment [2]; 7.47 µM in experiment [3]; above 100 µM in [4]; 7.86 µM in experiment [5]; above 100 µM in experiment [6]. Further, the TGI in experiment [7] is above 100 µM; in [8], above 100 µM; in [9], 89 µM; in experiment [10] it was 4.88 µM.

With `O=c1cc(-c2ccccc2)[nH]c2cc(Cl)cc(Cl)c12`, the TGI is 59.4 µM in experiment [1]; above 100 µM in experiment [2]; above 100 µM in experiment [3]; above 100 µM in experiment [4]; above 100 µM in experiment [5]; 60 µM in experiment [6]. The TGI is above 100 µM in experiment [7], above 100 µM in experiment [8], above 100 µM in experiment [9] and 51.2 µM in experiment [10].

As for `COc1cc(OC2OC(C)C(O)C(O)C2O)cc2oc(-c3ccc(O)cc3)c(CC=C(C)C)c(=O)c12` (stereo not given), the GI50 was 20.8 µM in experiment [1]; 12.9 µM in experiment [2]; 3.5 µM in experiment [3]; 23.4 µM in experiment [4]; 19.5 µM in experiment [5]; 11.7 µM in experiment [6]. Besides, the GI50 in experiment [7] is 22 µM; in experiment [8] it was 8.15 µM; in experiment [9] it was 21.9 µM; in experiment [10], 20.3 µM. The TGI in [1] came to 45.4 µM; in [2] it was 51.9 µM; in experiment [3] it was 16.2 µM; in experiment [4], 59.6 µM; in experiment [5], 44.2 µM; in [6], 60 µM. Also, the TGI in experiment [7] worked out at 59.8 µM; in experiment [8] it was 20.8 µM; in experiment [9], 69.7 µM; in experiment [10] it was 64.6 µM.
